Key:
[1] = tested on: K562 cells; test: K562 cell proliferation with adenosine and theophylline; type: cell-based, human
Protocol: (§1) During the last 6 hours of incubation, each well was pulsed with 1 μCi[^3H]-Thymidine. The cells were harvested and the [^3H]-Thymidine uptake was determined in an LKB liquid scintillation counter (LKB, Piscataway, N.J., USA).
Culture conditions were identical to those described above.

[2] = tested on: B-16-F10 melanoma cells; test: Example 4 in vivo: B-16-F10 melanoma lung tumor foci; set-up: species or system C57BL6/J mice; settings: for No. of foci (melanoma tumor foci in the lung): 18 days, adenosine 1 ml 5 mM daily i.p.
[3] = tested on: white blood cells; test: Example 5 in vivo: white blood cell count and percentage of granulocytes; set-up: species or system C57BL6/J mice
Protocol: 50 C57BL6/J mice were divided into 5 groups of 10 mice each, which were treated by intraperitoneal injection with one of the following treatments: • 1. Control group: 6 days of treatment by daily injection of 1 ml saline. • 2. […] Chemotherapy group: daily injection of 1 ml saline for 5 consecutive days. On day 6 the mice were injected intraperitoneally with cyclophosphamide. • 5. […] On day 6 the mice were injected intraperitoneally with cyclophosphamide. Results

[4] = tested on: blood cells; test: Example 3 in vivo: blood cell parameters after adenosine and/or chemotherapy; settings: for white blood cell count versus control: Example 3, in words
Protocol: 40 C57BL6/J were divided into 4 groups, each of which was treated (by intraperitoneal injection) according to one of the following protocols: • 1. Control group: 6 days of treatment by daily injection of 1 ml saline. • 2. Chemotherapy group: daily injection of 1 ml saline for 5 consecutive days. On day 6 the mice were injected intraperitoneally with cyclophosphamide. • 3. […] On day 6 the mice were injected intraperitoneally with 1 ml saline. • 4.
The following parameters were evaluated for each group: • i. Red blood cell (RBC) count. • ii. Hemoglobin (HGB) level. • iii. White blood cell count. • iv. Proportion of the three major groups of white blood cells: Lymphocytes (LYM), Monocytes (MID) and Granulocytes (GRAN). Results

[5] = tested on: bone marrow cells; test: Example 2: proliferation capacity of bone marrow from treated mice ([3H]-Thymidine); type: in vivo, C57BL6/J mice; settings: after 24 hours
Protocol: as §1
(§2) On day 6 the mice were injected intraperitoneally with 1 ml saline. • 4. chemotherapy group: daily injection of 1 ml saline for 5 consecutive days. On day 6 the mice were injected intraperitoneally with cyclophosphamide.
Five mice of each group were sacrificed […] and 96 hrs following the treatments and two parameters were evaluated: • 1. complete blood cell count. • 2. Proliferation capacity of bone marrow: bone marrow was aspirated from the femur and pooled for each tested group. The cells were separated, counted and the proliferative capacity was evaluated by the [^3H]-Thymidine incorporation assay as described above.

[6] = tested on: white blood cells; test: Example 2 in vivo: white blood cell count after adenosine and/or cyclophosphamide; set-up: species or system C57BL6/J mice; settings: i.p.
Protocol: as §2
[…] Proliferation capacity of bone marrow: bone marrow was aspirated from the femur and pooled for each tested group. The cells were separated, counted and the proliferative capacity was evaluated by the [^3H]-Thymidine incorporation assay as described above.

[7] = tested on: leukemia, lymphoma and the solid tumor cell lines; test: [3H]-Thymidine incorporation assay, tumor cell lines; type: cell-based, human, murine; settings: adenosine 4 μM, FIG. 2
Source text: Tumor cell lines from human (K562 myeloid leukemia, Tib-180 erythroleukemia, LNCaP prostate carcinoma and MDA-MB468 breast adenocarcinoma), and murine (Yac lymphoma, B-16 melanoma) were used and were purchased from the American Type Tissue Culture Collection, Rockville. Nb2 11c rat lymphoma cells (Pines et al.^(19), were also used. The cells were routinely maintained in RPM medium containing 10% fetal calf serum. Twice a week the cells were transferred to a freshly prepared medium.
as §1

[8] = tested on: Nb2-11C lymphoma cells; test: Cell count assay, proliferation of Nb2-11C lymphoma cells; type: cell-based, rat; settings: adenosine 1-20 μM, 48 hours
Protocol: The Nb2-11C cells were synchronized in the GO/Gl phase prior to cultivation with the CM by transferring the cells to horse serum (Biological Industries, Beit Haemek, Israel) supplemented medium for overnight incubation. […] Cell proliferation was initiated by the addition of Human Growth Hormone (Biotechnology General, Rehovot, Israel) to a final concentration of 2 ng/ml. The cultures were incubated at 37° C. at 5% CO2 and counted in Coulter Counter 48 hours later.

[9] = tested on: normal cells (bone marrow cells, fibroblasts, L-8 myoblast); test: [3H]-Thymidine incorporation assay, normal cells; type: cell-based, mice, rat; settings: adenosine 4 μM, FIG. 2
Protocol: As a control for tumor proliferating cells, two normal proliferating cell types were used i.e., bone marrow cells derived from the femur of C57BL/6J mice; fibroblasts derived from primary cultures of newborn rat skeletal muscle cells. The cells were prepared as previously, (Djaldetti, M., Sredni, B., Zigelman, R., Verber, M., and Fishman, P. Muscle cells produce a low molecular weight factor with anti-cancer activity. Clin. Exp. Matastasis, 14:189-196, 1996). Also used was the L-8 myoblast rat cell line which was purchased from the ATCC.
as §1

[10] = tested on: IL-12; test: IL-12 production by peripheral blood mononuclear cells; type: cell-based, human; settings: 4 μM adenosine
Protocol: Mononuclear cells (MNC) were fractionated from heparinized blood of 10 healthy volunteers using Ficoll-Hypaque gradient. […] At the end of the incubation period the supernatant was collected, centrifuged and filtered through 0.22μ sterile filter and kept at −70° C. until assayed. The level of IL-12 in the supernatants was analyzed using a commercial kit of R&D System.

[11] = tested on: bone marrow cells; test: Bone marrow cell proliferation in vitro (adenosine dose response, adenosine receptor antagonists); type: cell-based, C57BL/6J mice; settings: FIG. 3
Protocol: as §1

[12] = tested on: human peripheral blood NK cells; test: NK activity of peripheral blood cells, 51Cr-release assay, K562 targets; type: cell-based; settings: 4 μM adenosine, 18 hours preincubation
Protocol: K562 cells were used as the targets (T) and were labeled with 100 μCi of Na2[^51Cr]O4 at 37° for 1 h. After extensive washing to remove the excess Cr, cells (1×10^4) were resuspended and mixed with the effector cells at the E:T ratio of […] in a volume of 200 μl using triplicate assays. After 4 h of incubation at 37° C. in 5% CO2, plates were centrifuged, and the supernatants were counted in a gamma counter (LKB). […] Spontaneous release was below 8% of the maximal release throughout this experiment.

[13] = tested on: NK cells; test: NK activity of splenocytes from adenosine treated mice, Yac targets; type: in vivo, ICR mice; settings: 5 consecutive days 10 μM adenosine; two effector:target ratios; FIG. 8
[14] = adenosine where given 10 μM, cyclophosphamide where given on day 6
[15] = 5 μM adenosine group, daily i.p. 6 days

| SMILES | No. of foci (melanoma tumor foci in the lung) [2] | GRAN [3, 14] [%] | WBC [3, 14] [count × 10^3/I] | white blood cell count versus control [4] | % GRAN (granulocytes, % out of the number of white blood cells) ([4]; mean±S.E.) [%] | % LYM (lymphocytes, % out of the number of white blood cells) ([4]; mean±S.E.) [%] | % MID (monocytes, % out of the number of white blood cells) ([4]; mean±S.E.) [%] | Bone Marrow Cell Proliferation [5] [CPM] | WBC count ([6]; 24 hours after treatment) | WBC count ([6]; 96 hours after treatment) | further results |
| --- | --- | --- | --- | --- | --- | --- | --- | --- | --- | --- | --- |
| Cn1c(=O)c2[nH]cnc2n(C)c1=O [theophylline, Theophylline] | – | – | – | – | – | – | – | – | – | – | effect on the inhibitory effect of adenosine on tumor cell proliferation ([1]; theophylline 0.1 μM with 4 μM adenosine, K562): this inhibitory effect was neutralized |
| O=P1(N(CCCl)CCCl)NCCCO1 (centres unmarked) [cyclophosphamide] | 4.16 ± 1.42 | 7.70 | 5.00 | caused a reduction in the amount of white blood cells | 10.28 ± 1.59 | 81.94 ± 2.49 | 7.78 ± 0.92 | 434.5 ± 52.2 | 3.8 ± 0.18 × 10^6/ml | 3.62 ± 0.17 × 10^6/ml | HGB (hemoglobin count) ([4]; mean±S.E.): 14.88 ± 8.32 gram/100 ml |
| Nc1ncnc2c1ncn2[C@@H]1O[C@H](CO)[C@@H](O)[C@H]1O [adenosine] | 6.11 ± 2.74 | 10.76 | 7.56 | boosted to levels above control | 21.03 ± 2.75 | 65.57 ± 3.35 | 13.4 ± 0.70 | 1480.0 ± 68.5 | 9.37 ± 0.26 × 10^6/ml | 6.8 ± 0.73 × 10^6/ml | tumor load (tumor foci in the lungs) ([2]; oral 0.5 ml of 10 μM adenosine, about 54 μg/kg, with chemotherapeutic drug, FIG. 6): synergized with the chemotherapeutic drug to reduce the tumor load; K562 tumor cell proliferation ([1]; adenosine 4 μM, FIG. 4): inhibited tumor cell proliferation; GRAN [3, 15]: 9.00%; WBC [3, 15]: 9.50 count × 10^3/I; proliferation of leukemia, lymphoma and solid tumor cell lines [7]: induced proliferation inhibition; growth of Nb2-11c rat lymphoma cells (cell count) [8]: markedly inhibited; proliferation of the three tested normal cells [9]: stimulated the proliferation; production of IL-12 in the presence of SAC mitogen ([10]; 18 hours, FIG. 7): stimulated the production of IL-12; stimulation of IL-12 production without mitogen ([10]; no mitogen): 19%; concentration of peak stimulatory activity on bone marrow cell proliferation [11]: about 10 μM; HGB (hemoglobin count) ([4]; mouse, in vivo): 14.03 ± 0.20 gram/100 ml; stimulation of NK activity [12]: 32%; NK activity of splenocytes, lysis of Yac target cells [13]: more potent in lysing the Yac target cells |
